According to patent publication US20150368642A1, “LNA OLIGONUCLEOTIDE CARBOHYDRATE CONJUGATES” (HOFFMANN-LA ROCHE INC., priority 2013, published 2015):
Strand notation (5' to 3'): a small letter for the sugar, then the base; units joined by * are phosphorothioate-linked, units joined directly phosphodiester-linked; [ ] holds rarer units or linkages, { } end groups; capitals alone tell only the bases. {Conj1a} = GalNAc carbohydrate conjugate Conj1a; l = locked nucleic acid (LNA); [5mC] = 5-methylcytosine; d = 2'-deoxy (DNA)

Experiments:
ApoB mRNA = experiment: In vivo silencing of ApoB mRNA with monoGalNAc conjugates (branched DNA assay); conditions: Example 4; C57BL6 mice, single 1 mg/kg i.v., day 7; compared to unconjugated #12; FIG. 7a
Description: Capital letters are LNA nucleosides (such as beta-D-oxy LNA), lower case letters are a DNA nucleoside. Subscript s represents a phosphorothioate internucleoside linkage (region A). LNA cytosines are optionally 5-methyl cytosine. The 2PO linker (region B) is 5′ to the sequence region A, and comprises of two DNA nucleosides linked by phosphodiester linkage, with the internucleoside linkage between the 3′ DNA nucleoside of region A and the 5′ LNA nucleoside of region A also being phosphodiester. A linkage group (Y) may be used to link the conjugate group, when present, to region B, or A (SEQ ID NO 8 and 11). To compare the monoGalNAc conjugates with different linkers and the GalNAc cluster C57BL6 mice were treated i.v. with saline control or with a single dose of 1 mg/kg of ASO conjugated to Mono-GalNAc either without biocleavable linker, with Dithio-linker (SS) or with DNA/PO-linker (PO) (FIG. 7a) or with 0.25 mg/kg of ASO conjugated to Mono-GalNAc or GalNAc cluster (FIG. 7b). After 7 days the animals were sacrificed and RNA was isolated from liver and kidney samples and analysed for ApoB mRNA expression.
C57BL6 mice were dosed i.v. with a single dose of 1 mg/kg or 0.25 mg/kg ASO formulated in saline or saline alone according to the above table. […] Total RNA was extracted from liver and kidney samples and ApoB mRNA levels were analysed using a branched DNA assay.

ApoB = experiment: Non-human primate study, serum ApoB and LDL-C (ApoB conjugates); type: in vivo, cynomolgus monkeys; conditions: Example 7; single i.v. dose; FIG. 16
Experimental: The primary objective for this study is to investigate selected lipid markers over 7 weeks after a single slow bolus injection of anti-PCSK9 and anti-ApoB LNA conjugated to GalNac cluster (Conj2a) to cynomolgus monkeys and assess the potential toxicity of compounds in monkey. The compounds which were prepared in sterile saline (0.9%) at an initial concentration of 0.625 and 2.5 mg/ml).
Male (PCSK9) or female monkeys (ApoB) monkeys of at least 24 months old are used, and given free access to tap water and 180 g of MWM(E) SQC SHORT expanded diet (Dietex France, SDS, Saint Gratien, France) will be distributed daily per animal. The total quantity of food distributed in each cage will be calculated according to the number of animals in the cage on that day. In addition, fruit or vegetables will be given daily to each animal. The animals will be acclimated to the study conditions for a period of at least 14 days before the beginning of the treatment period. During this period, pre-treatment investigations will be performed. The animals are dosed i.v. at a dose if, for example, 0.25 mg/kg or 1 mg/kg. The dose volume will be 0.4 mL/kg. 2 animals are used per group. After three weeks, the data will be analyzed and a second group of animals using a higher or lower dosing regimen may be initiated—preliminary dose setting is 0.5 mg/kg and 1 mg/kg, or lower than that based on the first data set.
The dose formulations will be administered once on Day 1. Animals will be observed for a period of 7 weeks following treatment, and will be released from the study on Day 51. Day 1 corresponds to the first day of the treatment period. Clinical observations and body weight and food intake (per group) will be recorded prior to and during the study.
The following parameters will be determined for all surviving animals at the occasions indicated below: • full biochemistry panel (complete list below)—on Days −8, 15 and 50, • liver Safety (ASAT, ALP, ALAT, TBIL and GGT only)—on Days 4, 8, 22 and 36, • lipid profile (Total cholesterol, HDL-C, LDL-C and Triglycerides) and Apo-B only—on Days −1, 4, 8, 22, 29, 36, and 43.
Blood (approximately 1.0 mL) is taken into lithium heparin tubes (using the ADVIA 1650 blood biochemistry analyzer): Apo-B, sodium, potassium, chloride, calcium, inorganic phosphorus, glucose, HDL-C, LDL-C, urea, creatinine, total bilirubin (TBIL), total cholesterol, triglycerides, alkaline phosphatase (ALP), alanine aminotransferase (ALAT), aspartate aminotransferase (ASAT), creatine kinase, gamma-glutamyl transferase (GGT), lactate dehydrogenase, total protein, albumin, albumin/globulin ratio.
Other Analysis: WO2011009697 & WO2010142805 provides the methods for the following analysis: qPCR, PCSK9/ApoB mRNA analysis, Other analysis includes PCSK9/ApoB protein ELISA, serum Lp(a) analysis with ELISA (Mercodia No. 10-1106-01), tissue and plasma oligonucleotide analysis (drug content), Extraction of samples, standard- and QC-samples, Oligonucleotide content determination by ELISA. […] There was no indication of hepatotoxicity or nephrotoxicity with the ApoB targeting compounds.

HBV = HBV mouse hydrodynamic tailvein injection model, HBV DNA in liver by qPCR; type: in vivo, Balb/C mouse
Description: An LNA oligomer can be assessed for antiviral effect in vivo in a mouse strain, such as BALB/c or C57B/6, where HBV replication can be established by hydrodynamic tail vein injection of a plasmid, such as pAAV/HBV1.3, expressing a partially repeated HBV pregenomic RNA (J Virol. 1995 October; 69(10):6158-69) or pAAV2/HBV1.3, a derivative thereof (WuxiAppTech, Wuxi, China). The injection of the plasmid in a high volume of saline, equal to 8-12% of the body mass of the mouse, will result in the accumulation and expression of the viral pregenomic RNA in the liver, subsequently leading to the establishment of an acute HBV infection. Treatment of the animals with an LNA oligomer can be initiated 1 or more days before the injection of the plasmid or 1 day after the injection of the plasmid. Delivery of the LNA oligomer in saline can be done by intravenous or subcutaneous injection.
An in vivo experiment was performed on SEQ ID 55 and SEQ ID 56, the latter being a GalNAC conjugate of the former (conj1a). The LNA compounds were tested for efficacy against HBV in the mouse hydrodynamic tailvein injection model using the Balb/C mouse strain. LNA compounds were be tested at equimolar doses; 2 and 10 mg/kg, single injection (SEQ ID 55) and at 2.7 and 13.5 mg/kg, single injection (SEQ ID 56). The LNA anti-HBV compounds were compared to saline and to entecavir, an inhibitor of the HBV reverse transcriptase. Entecavir was dosed p.o. daily at 0.1 mg/kg. Where applicable, the animals were treated with the LNA compound 24 hours before the hydrodynamic injection. Entecavir was given in daily doses as described starting 24 hours after the hydrodynamic injection. […] All the animals were monitored on a daily basis for body weight changes and clinical signs for the duration of the in vivo study. […] All the blood samples were collected in tubes containing heparin sodium The portion of the left lobe of each liver was used to determine the level of HBV DNA replication by qPCR, as copies per unit weight of liver in which the quantity of total HBV DNA level is subtracted by the quantity of pAAV2/HBV DNA level. […]

Substance	ApoB mRNA knock down, activity in the liver (ApoB mRNA)	pharmacology (serum ApoB and LDL-C) (ApoB)	also measured
SEQ ID NO 8: GsCsaststsgsgstsastsTsCsA, no cleavable linker, monoGalNAc; ApoB (GCATTGGTATTCA; sugars from the 5' end l2 d8 l3, all phosphorothioate, methylation of C not given here; monoGalNAc conjugated without cleavable linker)	clearly improved activity in the liver		
SEQ ID NO 10: GsCsaststsgsgstsastsTsCsA, 2PO-DNA (5′ca3′), monoGalNAc; ApoB (CAGCATTGGTATTCA; listed as DNA, chemistry not fully specified)	clearly improved activity in the liver		
SEQ ID NO 14: GsCsaststsgsgstsastsTsCsA, 2PO-DNA (5′ca3′), cholesterol; ApoB (CAGCATTGGTATTCA; chemistry not fully specified)		did not exhibit significant pharmacology	
SEQ ID NO 17: GsTstsgsascsascstsgsTsC, GalNAc cluster Conj2a; ApoB (GTTGACACTGTC; listed as DNA, chemistry not fully specified)		effective	potency compared to the cholesterol conjugated compound (ApoB): considerably more potent than the cholesterol conjugated compound
SEQ ID NO 32: GsTstsgsascsascstsgsTsC, 2PO-DNA (5′ca3′), cholesterol; ApoB (CAGTTGACACTGTC; listed as DNA, chemistry not fully specified)		effective	
SEQ ID NO 56: 5′-GsAsGsGscsastsasgscsasgs^mCsAsGsG-3′ with a 5′ GalNac(Conj1a) ({Conj1a}-lG*lA*lG*lG*dC*dA*dT*dA*dG*dC*dA*dG*l[5mC]*lA*lG*lG)			reduction in viral titer in the liver (HBV; 8 days after delivery of a single dose and 7 days after the initiation of the infection): 90%; effect on replication of HBV / HBV DNA level in the liver (HBV; Balb/C mice, single injection 24 hours before hydrodynamic injection, SEQ ID 55 2 and 10 mg/kg, SEQ ID 56 2.7 and 13.5 mg/kg): excellent dose-dependent antiviral effect
